System: bone metastases in advanced RCC patients
Assay: METEOR bone endpoints: bone scan response, skeletal-related events, bone markers
Format: in vivo, human
Conditions: for C-terminal cross-lined telopeptides of type 1 collagen (CTx), median / N-terminal propeptide of type 1 collagen (P1NP), median: patients with bone metastases at baseline; for Bone scan response (BSR) per IRC: patients with bone lesions at baseline by bone scan, BSR = ≥30% decrease in BSLA
Text: The study design in depicted in FIG. 8.3. Clinical outcome measures included PFS, ORR, overall survival (OS), and safety. Exploratory endpoints included bone scan response (BSR) in patients with bone scan lesions at baseline (Brown Nucl Med Commun 2012 33:384), incidence of skeletal-related events (SRE), and changes in bone turnover markers. The subgroup of patients with bone metastases (N=142) was defined by the presence of bone metastases at baseline by CT or MRI per IRC. Bone scan response (BSR) was evaluated for patients who had bone lesions detected by technetium bone scans at baseline (N=178).
Participants were screened via CT or MRI every 8 weeks for the first 12-months post-randomization, and then every 12 weeks thereafter. Technetium bone scans were performed at screening (all patients), every 16 weeks for the first 12 months post-randomization (only in patients with bone lesions at baseline), and then every 23 weeks thereafter. Skeletal-related events (SREs) were assessed and consisted of pathological fractures, spinal cord compression, surgery to bone, and external radiation therapy to bone. Serum bone marker analyses consisted on N-terminal propeptide of type I collagen (PINP), and the bone resorption marker c-terminal cross-lined telopeptides of type I collagen (CTx), which were collected prior to the first dose at week 1, at week 5, and at week 9.
Bone scan responses per IRC in patients with bone scan lesions were performed using computer-assisted detection of bone scan lesions. An IRC was used to quantitate bone scan tumor burden using computer-assisted detection (CAD) to measure lesions and defined criteria for response. Bone scan lesion area (BSLA), which represents the number of pixels with radiotracer uptake above the threshold for normal bone, was also calculated. BSR was defined as greater than or equal to 30% decrease in BSLA.

[1] = patients with an SRE pre-randomization
[2] = prior history of SREs, Pts with Bone Metastases
[3] = prior history of SREs, Pts without Bone Metastases

SMILES	C-terminal cross-lined telopeptides of type 1 collagen (CTx), median (Baseline) [µg/L]	N-terminal propeptide of type 1 collagen (P1NP), median (Baseline) [µg/L]	Post-Randomization SREs, % (Pts with Bone Metastases)	Post-randomization SRE: External radiation therapy to bone, % (Pts with Bone Metastases)	Post-randomization SRE: Pathologic fractures, % (Pts with Bone Metastases)	Post-randomization SRE: Spinal cord compression, % (Pts with Bone Metastases)	Post-randomization SRE: Surgery to bone, % (Pts with Bone Metastases)	Time to first SRE, median (Pts with Bone Metastases) [months]	Post-Randomization SREs, % (Pts without Bone Metastases)	Post-randomization SRE: External radiation therapy to bone, % (Pts without Bone Metastases)	Post-randomization SRE: Pathologic fractures, % (Pts without Bone Metastases)	Post-randomization SRE: Spinal cord compression, % (Pts without Bone Metastases)	Post-randomization SRE: Surgery to bone, % (Pts without Bone Metastases)	Time to first SRE, median (Pts without Bone Metastases) [months]	C-terminal cross-lined telopeptides of type 1 collagen (CTx), median (Week 5) [µg/L]	N-terminal propeptide of type 1 collagen (P1NP), median (Week 5) [µg/L]	Cases of spinal cord compression [1]	Incidence of post-randomization SREs [1] [%]	Bone scan response (BSR) per IRC [%]	Post-randomization SRE: External radiation therapy to bone, % [2]	other results
COc1cc2nccc(Oc3ccc(NC(=O)C4(C(=O)Nc5ccc(F)cc5)CC4)cc3)c2cc1OC [cabozantinib]	0.40	48.5	(21) %	(9) %	(12) %	(3) %	(8) %	3.45	(9) %	(7) %	(3) %	(1) %	(2) %	3.93	0.19	38.9	0	16	18	(9) %	Reductions in bone markers (cabozantinib vs everolimus): greater; Bone scan response (BSR) per IRC (listed as Cabozantinib): 18 (11, 27) %; Post-randomization SRE: Pathologic fractures, % [2]: (14) %; Post-randomization SRE: Surgery to bone, % [2]: (9) %; SREs in patients with a prior history of SREs, % [2]: (23) %; Time to first SRE, median [2]: 3.25 months; Post-randomization SRE: External radiation therapy to bone, % [3]: (8) %; Post-randomization SRE: Pathologic fractures, % [3]: (6) %; Post-randomization SRE: Surgery to bone, % [3]: (4) %; SREs in patients with a prior history of SREs, % [3]: (10) %; Time to first SRE, median [3]: 2.76 months; Cases of spinal cord compression (randomized patients): 4; Patients with at least one skeletal-related event (SRE) (randomized patients): 12%
CO[C@H]1C[C@@H]2CC[C@@H](C)[C@@](O)(O2)C(=O)C(=O)N2CCCC[C@H]2C(=O)O[C@H]([C@H](C)C[C@@H]2CC[C@@H](OCCO)[C@H](OC)C2)CC(=O)[C@H](C)/C=C(\C)[C@@H](O)[C@@H](OC)C(=O)[C@H](C)C[C@H](C)/C=C/C=C/C=C/1C [everolimus]	0.43	49.9	(29) %	(25) %	(5) %	(6) %	(8) %	2.53	(10) %	(7) %	(3) %	(2) %	(2) %	4.27	0.43	44.1	5	34	10	(28) %	Bone scan response (BSR) per IRC (listed as Everolimus): 10 (4, 19) %; Post-randomization SRE: Pathologic fractures, % [2]: (5) %; Post-randomization SRE: Spinal cord compression, % [2]: (5) %; Post-randomization SRE: Surgery to bone, % [2]: (7) %; SREs in patients with a prior history of SREs, % [2]: (33) %; Time to first SRE, median [2]: 2.41 months; Post-randomization SRE: External radiation therapy to bone, % [3]: (23) %; Post-randomization SRE: Pathologic fractures, % [3]: (13) %; Post-randomization SRE: Spinal cord compression, % [3]: (6) %; Post-randomization SRE: Surgery to bone, % [3]: (9) %; SREs in patients with a prior history of SREs, % [3]: (36) %; Time to first SRE, median [3]: 4.27 months; Cases of spinal cord compression (randomized patients): 8; Patients with at least one skeletal-related event (SRE) (randomized patients): 14%
